Measurements reported in article PMC12746157, “Light-Regulated Agonists Spatiotemporally Activating the Vitamin D Receptor Mitigate Psoriasis-like Inflammation in Mice without Inducing Hypercalcemia” (ACS Central Science, 2025).

Target: VDR (Homo sapiens, UniProt P11473)
Test: Luminescent proximity homogeneous assay (AlphaScreen): interaction of purified VDR, RxR and TRAP220 coactivator fragment
Format: biochemical
Conditions: for EC50: n >= 3, read-out: Activity (pEC50) (converted); for Activity in the dark: dark (trans), concentrations up to 10 μM
Description: The activity of all molecules was evaluated using a luminescent proximity homogeneous assay to study interactions between purified VDR, RxR and a fragment of the transcriptional coactivator TRAP220 (Supporting Information). This method allowed us to monitor the interaction between TRAP220 and the activated VDR-RxR heterodimer, which is of mechanistic and physiological significance. Both the activation of VDR and the VDR-RxR heterodimer formation are necessary to promote the whole complex association. This system efficiently includes conformational events of the receptor upon activation that go beyond a simple binding measurement. […]
The activity of all molecules was evaluated using an in-vitro luminescent proximity homogeneous assay by using the Alphascreen technology (Cat No. 6760619R, Perkin Elmer, now Revvity). In a transparent 96-well preplate, 10X concentrations of the compounds were prepared in assay buffer (0.1% bovine serum albumin, 2 mM 1,4-dithiothreitol, 25 mM HEPES and 100 mM NaCl; pH 7.3). LSN2148936 was used as positive control. Purified histidine-tagged VDR (44 µM), flag-RxRa (5.7 µM), biotin tagged TRAP220 transcriptional coactivator (500 µM), and the donor and acceptor beads from the AlphaScreen kit (2 µL/mL each), were diluted in assay buffer. In the dark, 6 µL/well of each test compound were pipetted on a white, shallow 96-well ProxiPlateTM […]
(Perkin Elmer, now Revvity, Cat.No. 6006290) in duplicate. Immediately, 54 µL of the protein solution were added and the plate was covered and incubated for 30 min at room temperature in the dark. Meanwhile, the plate with the 10X dilutions was illuminated at 365 nm for 3 min in a 96-well DED array plate (LEDA Teleopto), to allow the photoconversion of the molecules to their cis configuration. The illuminated compounds were mixed with the protein solution and incubated as described above for the plate in the dark. After the incubation time, the counts of both, the dark and illuminated plates, were measured in a Tecan Spark 20M Multimode plate reader with defined settings (excitation: 680 nm, emission: 520-620 nm, excitation time: 100ms, integration time: 300 ms). Biotinylated-His6 peptide (PerkinElmer) was used as a quality control reagent for AlphaScreen® assays and to evaluate compound interaction with the method. The raw data were normalized to the effect of the buffer (0%) and the maximum response obtained with LSN2148936 (100%). Dose-response curves and EC50 values were calculated with Graphpad software. Each experiment was performed in triplicate, with 2 replicates per plate.
4. Hydrogen/deuterium exchange coupled to mass spectrometry (HDX-MS)
The HDX-MS experiments were performed with an in-house automated modular system interfaced with an Orbitrap Exploris 480 mass spectrometer.1 Two inter-day experiments were conducted: one in the dark (first day) and one illuminated with 365 nm light (second day). Sample preparation and on-exchange reactions were performed on opaque plates (VWR® Real-Time […]
mm, Part Nº BC5226) light source was positioned above the Tecan system used for sample preparation. The distance between the UV light and the opaque plates was 80 cm. The 365 nm light illuminated the sample preparation process and the on-exchange reaction on the second day.
A 10 µM VDR-LBD protein stock solution was prepared in 20 mM HEPES buffer (with 150 mM NaCl, 10 mM D-L Methionine and 5 mM DTT) at pH 7.5. The compound 11b was prepared at 10 mM in DMSO. The protein: compound-complex (1:10 molar ratio) was pre-incubated for 1h before the first on-exchange reaction. The HDX reaction was initiated by a 5-fold dilution of the protein stock solution, in the presence and absence of compound 11b, in the corresponding Deuterated buffer at room temperature. Samples were prepared in parallel with three replicates of […]
time point, HDX reactions were quenched with a solution of 3 M Urea and 1% TFA (pH 2.5) followed by online proteolysis with an in-house Pepsin immobilized column and desalting […]

[1] = after illumination (365 nm) for 3 min, mean ± SEM
[2] = after illumination (365 nm) for 3 min, normalized to maximum response of LSN2148936 (100%), mean ± SEM

Chain of VDR (P11473 whole entry, the tested form may be a part): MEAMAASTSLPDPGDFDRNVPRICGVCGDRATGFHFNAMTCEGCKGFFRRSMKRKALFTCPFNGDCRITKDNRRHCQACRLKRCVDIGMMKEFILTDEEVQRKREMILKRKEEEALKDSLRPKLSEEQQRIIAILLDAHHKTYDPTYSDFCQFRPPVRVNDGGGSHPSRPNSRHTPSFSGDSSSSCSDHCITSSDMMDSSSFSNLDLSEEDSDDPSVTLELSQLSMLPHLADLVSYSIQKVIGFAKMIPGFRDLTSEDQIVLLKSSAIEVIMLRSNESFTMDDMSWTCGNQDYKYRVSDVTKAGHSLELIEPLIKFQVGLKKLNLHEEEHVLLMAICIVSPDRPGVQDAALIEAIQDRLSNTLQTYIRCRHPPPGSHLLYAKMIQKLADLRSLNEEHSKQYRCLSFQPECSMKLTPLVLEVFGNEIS
Chain of VDR (P19793 whole entry partner, the tested form may be a part): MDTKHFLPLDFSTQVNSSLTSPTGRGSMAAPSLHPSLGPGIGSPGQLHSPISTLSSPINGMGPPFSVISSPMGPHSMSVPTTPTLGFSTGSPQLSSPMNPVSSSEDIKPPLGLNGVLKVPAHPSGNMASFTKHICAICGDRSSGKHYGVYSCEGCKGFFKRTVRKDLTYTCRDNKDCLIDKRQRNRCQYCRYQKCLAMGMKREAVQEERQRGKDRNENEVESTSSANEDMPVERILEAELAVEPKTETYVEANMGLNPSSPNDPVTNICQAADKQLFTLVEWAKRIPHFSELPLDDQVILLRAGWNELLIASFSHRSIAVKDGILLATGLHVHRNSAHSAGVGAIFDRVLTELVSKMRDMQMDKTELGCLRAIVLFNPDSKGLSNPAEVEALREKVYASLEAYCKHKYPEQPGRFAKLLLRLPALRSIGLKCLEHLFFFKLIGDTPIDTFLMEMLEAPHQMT
Chain of VDR (Q15648 whole entry partner, the tested form may be a part): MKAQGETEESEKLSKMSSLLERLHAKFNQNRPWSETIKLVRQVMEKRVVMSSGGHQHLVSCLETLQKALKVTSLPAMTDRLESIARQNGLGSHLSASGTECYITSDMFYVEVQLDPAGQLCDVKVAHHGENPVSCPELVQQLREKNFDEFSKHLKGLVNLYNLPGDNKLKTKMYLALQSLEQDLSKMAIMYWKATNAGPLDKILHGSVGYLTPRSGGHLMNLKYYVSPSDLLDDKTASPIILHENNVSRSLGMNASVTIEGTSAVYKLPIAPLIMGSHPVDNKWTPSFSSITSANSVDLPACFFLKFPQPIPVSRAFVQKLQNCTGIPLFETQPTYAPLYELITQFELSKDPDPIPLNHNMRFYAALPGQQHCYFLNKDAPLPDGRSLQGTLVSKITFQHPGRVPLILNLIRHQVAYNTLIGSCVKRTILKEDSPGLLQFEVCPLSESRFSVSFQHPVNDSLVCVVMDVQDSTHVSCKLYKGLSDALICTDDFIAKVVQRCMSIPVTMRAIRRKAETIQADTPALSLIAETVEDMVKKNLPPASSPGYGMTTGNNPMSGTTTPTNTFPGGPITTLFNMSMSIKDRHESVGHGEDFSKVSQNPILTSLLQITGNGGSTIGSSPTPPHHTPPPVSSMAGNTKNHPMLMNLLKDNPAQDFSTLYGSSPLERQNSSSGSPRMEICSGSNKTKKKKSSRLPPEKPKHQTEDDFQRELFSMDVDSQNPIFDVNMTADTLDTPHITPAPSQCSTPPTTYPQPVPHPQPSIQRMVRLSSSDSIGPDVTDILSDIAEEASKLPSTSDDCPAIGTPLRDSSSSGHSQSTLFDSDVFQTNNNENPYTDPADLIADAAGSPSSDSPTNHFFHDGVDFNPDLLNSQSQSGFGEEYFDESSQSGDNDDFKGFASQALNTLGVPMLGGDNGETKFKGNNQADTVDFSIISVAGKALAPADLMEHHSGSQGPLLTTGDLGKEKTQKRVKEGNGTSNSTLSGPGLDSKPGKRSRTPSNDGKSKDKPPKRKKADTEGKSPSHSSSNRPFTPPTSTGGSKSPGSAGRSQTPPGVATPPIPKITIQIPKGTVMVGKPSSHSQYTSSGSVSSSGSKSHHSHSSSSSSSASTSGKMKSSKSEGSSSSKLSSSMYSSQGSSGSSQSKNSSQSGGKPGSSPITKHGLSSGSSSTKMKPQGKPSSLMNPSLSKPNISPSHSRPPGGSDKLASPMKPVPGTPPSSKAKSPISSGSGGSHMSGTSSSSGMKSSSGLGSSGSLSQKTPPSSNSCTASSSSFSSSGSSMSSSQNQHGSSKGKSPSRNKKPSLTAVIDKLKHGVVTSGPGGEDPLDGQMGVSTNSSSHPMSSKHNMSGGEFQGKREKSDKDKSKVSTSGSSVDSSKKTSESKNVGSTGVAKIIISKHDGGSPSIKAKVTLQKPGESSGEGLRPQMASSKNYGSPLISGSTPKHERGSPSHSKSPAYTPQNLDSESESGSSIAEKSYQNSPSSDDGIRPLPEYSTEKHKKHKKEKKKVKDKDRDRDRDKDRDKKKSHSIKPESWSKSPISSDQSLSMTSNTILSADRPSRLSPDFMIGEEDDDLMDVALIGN

Row | SMILES | EC50 [1] | Emax [2] | Activity (Emax) (after illumination (365 nm) for 3 min, normalized to maximum response of LSN2148936 (100%), mean ± SEM, listed as 11b (PhotoVDRM)) | Activity in the dark | antagonist activity (several concentrations with LSN2148936 at 300nM, dark or 365 nm)
1 | COC(=O)c1ccc(-c2cccc(/N=N/c3ccc(OCC(O)C(C)(C)C)cc3C)c2)cc1 (centres unmarked) [Compound 10b] | 100 nM | 44 ± 0.66% | – | – | –
2 | Cc1cc(/N=N/c2cccc(-c3ccc(C(=O)O)cc3C)c2)ccc1OCC(O)C(C)(C)C (centres unmarked) [Compound 11c] | 575 nM | 68 ± 3.73% | – | – | –
3 | Cc1cc(OCC(O)C(C)(C)C)ccc1N=Nc1cccc(-c2ccc(C(=O)O)cc2)c1 (centres unmarked) [Compound 11b] | 58.9 nM | > 80% | 84 ± 2.62% | inactive | does no act as antagonist
4 | Cc1cc(/N=N/c2cccc(-c3ccc(C(=O)O)cc3)c2)ccc1OCC(O)C(C)(C)C (centres unmarked) [Compound 11a] | 1260 nM | 60 ± 1.26% | – | small increase in the activity | –
5 | COC(=O)c1ccc(-c2cccc(/N=N/c3ccc(OCC(O)C(C)(C)C)c(C)c3)c2)cc1 (centres unmarked) [Compound 10a] | 1100 nM | 23 ± 2.65% | – | – | –
6 | Cc1cc(/N=N/c2cccc(-c3ccc(CO)cc3)c2)ccc1OCC(O)C(C)(C)C (centres unmarked) [Compound 12a] | 339 nM | 31 ± 3.13% | – | – | –
7 | COC(=O)c1ccc(-c2cccc(/N=N/c3ccc(OCC(O)C(C)(C)C)cc3C)c2)c(C)c1 (centres unmarked) [Compound 10d] | 813 nM | 30 ± 1.71% | – | – | –
8 | Cc1cc(OCC(O)C(C)(C)C)ccc1/N=N/c1cccc(-c2ccc(CO)cc2)c1 (centres unmarked) [Compound 12b] | 794 nM | 44 ± 5.37% | – | – | –
9 | COC(=O)c1ccc(-c2cccc(/N=N/c3ccc(OCC(O)C(C)(C)C)c(C)c3)c2)c(C)c1 (centres unmarked) [Compound 10c] | 1860 nM | 29 ± 4.31% | – | – | –
10 | Cc1cc(OCC(O)C(C)(C)C)ccc1/N=N/c1cccc(-c2ccc(C(=O)O)cc2C)c1 (centres unmarked) [Compound 11d] | 209 nM | 93 ± 6.73% | – | – | –
11 | Cc1cc(OCC(O)C(C)(C)C)ccc1/N=N/c1cccc(-c2ccc(CO)cc2C)c1 (centres unmarked) [Compound 12d] | 95.5 nM | 61 ± 2.01% | – | – | –
